Results on two compounds are retold here after paper PMC4258421 (Archives of biochemistry and biophysics, 2014).

Series [1] relates to UGTs in human liver microsomes pooled from 150 donors (HLM150). It counts as in vitro ADME. The conditions noted are these: for Km: read-out: Km for the microsomal reaction, glucuronidation at the C7 hydroxyl group, HLM150.
Another series has as its system recombinant UGT1A1. The settings on record: read-out: Km for the UGT1A1 reaction, glucuronidation at the C7 hydroxyl group; cited from earlier work.
A further series relates to plasma proteins. The settings on record: cited from earlier work.
The mark [2] stands for this setting: formation of 7-HOWAR-4-GLUC, DynaFit preferred model, 95 % CI in parentheses.
The mark [3] stands for this setting: formation of 7-HOWAR-7-GLUC, DynaFit preferred model, 95 % CI in parentheses.

Read-outs that look alike come from different tables or passages of the source.

The term Km denotes the substrate concentration at which the rate is half of its maximum. On to `CC(=O)C[C@H](c1ccccc1)c1c(O)c2ccc(O)cc2oc1=O` [R-7-HOWAR, R-7-hydroxywarfarin], for which, in series [1] (setting [2]), the Vmax1 was 58.0 (49.5–66.1) nmol/min/mg protein and the Vmax2 was 19.0 (16.3–21.4) nmol/min/mg protein. Also, in series [1] (setting [3]), the Ks is given as 121 (101–144) μM and the Vmax1 was 1090 (1050–1140) nmol/min/mg protein. For the same compound, the Michaelis constant (Km) in series [1] came to 121 µM. For the same compound, the Michaelis-Menten constant (Km) in the series on recombinant UGT1A1 was 130 µM. Besides, the “not bound to plasma proteins” value with plasma proteins is on record as 4.49%.
Take `CC(=O)C[C@@H](c1ccccc1)c1c(O)c2ccc(O)cc2oc1=O` [S-7-OHWAR, S-7-hydroxywarfarin]: the Ks in series [1] (setting [2]) is given as 110 (83.0–149) μM; in series [1] (setting [3]), 927 (559–1960) μM. The Vmax1 in series [1] (setting [2]) was 19.7 (17.6–22.4) nmol/min/mg protein; in series [1] (setting [3]) it was 1470 (1020–2700) nmol/min/mg protein. Also, the Km is 927 µM in series [1] and 230 µM in the series with recombinant UGT1A1. In addition, in the series with plasma proteins, the “not bound to plasma proteins” value was 4.27%.
